# Assay results published in patent publication US20120264830A1, “CHONDROITIN SULFATE-POLYCAPROLACTONE COPOLYMER, METHOD FOR PREPARING THE SAME AND APPLICATION THEREOF” (KAOHSIUNG MEDICAL UNIVERSITY, priority 2011, published 2012).
# System: lung cancer cell CRL-5802
# Test: Cytotoxicity test of the medical composition and of camptothecin (MTT)
# Assay type: cell-based
# Conditions: CRL-5802 cells, camptothecin concentration 1 μg/mL, treatment time 24 hours
# Protocol: 5000 cells/well of CRL-5802 were placed in a 96-well plate containing 100 μL of DMEM, followed by cultivation for 24 hours at 37° C. and 5% CO2. The cell culture medium was periodically replaced during the cultivation period. Thereafter, the medical composition described in the section of “Preparation of medical composition” was mixed with DMEM to prepare an original solution having a concentration of 250 μg/mL (the concentration of camptothecin was 10 μg/mL). The original solution was diluted with DMEM to obtain six diluted solutions such that the concentrations of camptothecin in the six diluted solutions were respectively 4 μg/mL, 2 μg/mL, 1 μg/mL, 0.2 μg/mL, 0.1 μg/mL and 0.04 μg/mL. The original solution and the six diluted solutions were added into the respective wells containing cell s such that the final concentrations of camptothecin were adjusted to 5 μg/mL, 2 μg/mL, 1 μg/mL, 0.5 μg/mL, 0.1 μg/mL, 0.05 μg/mL, and 0.02 μg/mL respectively (experimental groups). The cells in the control group were cultured with DMEM without addition of the medical composition. The cells were further cultivated for 24 hours. […] The absorbance of each of the wells containing cells at 490 nm was recorded, thereby calculating the cell survival rate based on the aforesaid equation. […]
compound,measurement,value
CC[C@@]1(O)C(=O)OCc2c1cc1n(c2=O)Cc2cc3ccccc3nc2-1 [camptothecin],cell survival rate,30%
